Values of other authors as cited in patent publication US8143291B2, “Indole compounds bearing aryl or heteroaryl groups having sphingosine-1-phosphate (S1P) receptor biological activity” (Allergan, Inc., priority 2008, dated 2012).

System: perfused porcine eyes
Conditions: by altering paracellular permeability, IOVS 45, 2263, 2004

CCCCCCCCCCCCC/C=C/[C@@H](O)[C@@H](N)COP(=O)(O)O [S1P, Sphingosine-1-phosphate]
decrease of outflow facility: > 30%
